US20070082880A1 (priority 2005, published 2007)

Target: T1, human PKCθ full length enzyme (Homo sapiens, UniProt Q04759)
T1 construct: human PKCθ full length enzyme (Panvera Catalog No. P2996); purchased Panvera P2996
Test: PKCθ IMAP Assay
Type: biochemical
Conditions: average value when one or more samples were tested; ATP 6 uM, PKCθ 1 nM
Method in brief: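 Full-length human PKCθ (1 nM final) with 6 uM ATP and 100 nM 5FAM-labelled peptide, 5% DMSO, 3.0 mM DTT in reaction buffer. 25 min at room temperature; IMAP bead binding 20 min, fluorescence polarization read. Compounds 2:1 serially diluted; no-ATP and no-enzyme wells as controls.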

T1 sequence (Q04759 whole entry): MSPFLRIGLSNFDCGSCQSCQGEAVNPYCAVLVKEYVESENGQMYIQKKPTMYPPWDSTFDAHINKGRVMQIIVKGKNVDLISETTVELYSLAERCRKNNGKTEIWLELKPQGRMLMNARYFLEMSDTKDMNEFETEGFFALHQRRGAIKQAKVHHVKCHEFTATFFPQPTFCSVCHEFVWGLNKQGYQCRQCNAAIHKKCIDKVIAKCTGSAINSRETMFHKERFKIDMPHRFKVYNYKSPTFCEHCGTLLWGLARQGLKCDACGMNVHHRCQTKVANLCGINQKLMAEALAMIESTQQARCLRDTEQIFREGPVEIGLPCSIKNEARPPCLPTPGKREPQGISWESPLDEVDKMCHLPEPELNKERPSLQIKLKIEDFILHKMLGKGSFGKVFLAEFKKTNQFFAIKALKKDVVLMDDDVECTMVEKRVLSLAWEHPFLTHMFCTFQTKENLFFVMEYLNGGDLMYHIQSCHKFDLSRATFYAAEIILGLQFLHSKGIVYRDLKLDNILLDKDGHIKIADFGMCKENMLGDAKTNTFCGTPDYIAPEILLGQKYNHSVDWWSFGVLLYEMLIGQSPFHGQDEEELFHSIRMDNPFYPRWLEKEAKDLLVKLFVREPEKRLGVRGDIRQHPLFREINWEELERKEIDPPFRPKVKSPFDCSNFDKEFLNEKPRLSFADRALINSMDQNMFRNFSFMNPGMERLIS

SMILES | IC50
Cc1c(Nc2c(C#N)cnc3sc(-c4ccccc4)c(C)c23)ccc2[nH]ccc12 [Compound 424, 3-methyl-4-[(4-methyl-1H-indol-5-yl)amino]-2-phenylthieno[2,3-b]pyridine-5-carbonitrile] | 194 nM
Cc1c(Nc2c(C#N)cnc3sc(-c4cnc(N5CCCCC5)nc4)cc23)ccc2[nH]ccc12 [Compound 395, 4-[(4-methyl-1H-indol-5-yl)amino]-2-(2-piperidin-1-ylpyrimidin-5-yl)thieno[2,3-b]pyridine-5-carbonitrile] | 281 nM
COC(=O)c1cc2c(Nc3ccc4[nH]ccc4c3)c(C#N)cnc2s1 [Compound 246, methyl 5-cyano-4-(1H-indol-5-ylamino)thieno[2,3-b]pyridine-2-carboxylate] | 438 nM
CNS(=O)(=O)c1cccc(-c2cc3c(Nc4ccc5[nH]ccc5c4C)c(C#N)cnc3s2)c1 [Compound 343, 3-{5-cyano-4-[(4-methyl-1H-indol-5-yl)amino]thieno[2,3-b]pyridin-2-yl}-N-methylbenzenesulfonamide] | 30 nM
Cc1c(Nc2c(C#N)cnc3sc(C(=O)N(C)C)cc23)ccc2[nH]ccc12 [Compound 261, 5-cyano-N,N-dimethyl-4-[(4-methyl-1H-indol-5-yl)amino]thieno[2,3-b]pyridine-2-carboxamide] | 222 nM
N#Cc1cnc2sc(-c3ccccc3)cc2c1Nc1cnc2[nH]ccc2c1Cl [Compound 524, 4-[(4-chloro-1H-pyrrolo[2,3-b]pyridin-5-yl)amino]-2-phenylthieno[2,3-b]pyridine-5-carbonitrile] | 48 nM
N#Cc1cnc2sc(C(=O)NCCO)cc2c1Nc1ccc2[nH]ccc2c1 [Compound 254, 5-cyano-N-(2-hydroxyethyl)-4-(1H-indol-5-ylamino)thieno[2,3-b]pyridine-2-carboxamide] | 864 nM
CN(C)S(=O)(=O)c1ccc(-c2cc3c(Nc4ccc5[nH]ccc5c4)c(C#N)cnc3s2)cc1 [Compound 231, 4-[5-cyano-4-(1H-indol-5-ylamino)thieno[2,3-b]pyridin-2-yl]-N,N-dimethylbenzenesulfonamide] | 210 nM
Cc1c(Nc2c(C#N)cnc3sc(-c4cccc(C(C)N(C)C)c4)cc23)ccc2[nH]ccc12 (centres unmarked) [Compound 347, 2-{3-[1-(dimethylamino)ethyl]phenyl}-4-[(4-methyl-1H-indol-5-yl)amino]thieno[2,3-b]pyridine-5-carbonitrile] | 13 nM
Cc1c(Nc2c(C#N)cnc3sc(C4CCNCC4)cc23)ccc2[nH]ccc12 [Compound 478, 4-[(4-methyl-1H-indol-5-yl)amino]-2-piperidin-4-ylthieno[2,3-b]pyridine-5-carbonitrile] | 70 nM
Cc1c(Nc2c(C#N)cnc3sc(-c4cc(F)cc(C(=O)N(C)C)c4)cc23)ccc2[nH]ccc12 [Compound 512, 3-{5-cyano-4-[(4-methyl-1H-indol-5-yl)amino]thieno[2,3-b]pyridin-2-yl}-5-fluoro-N,N-dimethylbenzamide] | 38 nM
COC/C=C/c1cc2c(Nc3ccc4[nH]ccc4c3)c(C#N)cnc2s1 [Compound 412, 4-(1H-indol-5-ylamino)-2-[(1E)-3-methoxyprop-1-en-1-yl]thieno[2,3-b]pyridine-5-carbonitrile] | 413 nM
Cc1c(Nc2c(C#N)cnc3sc(-c4cccc(OC[C@@H](C)O)c4)cc23)ccc2[nH]ccc12 [Compound 482, 2-(3-{[(2R)-2-hydroxypropyl]-oxy}phenyl)-4-[(4-methyl-1H-indol-5-yl)amino]thieno[2,3-b]pyridine-5-carbonitrile] | 93 nM
Cc1c(Nc2c(C#N)cnc3sc(-c4ccc(N(C)C)nc4)cc23)ccc2[nH]ccc12 [Compound 391, 2-[6-(dimethylamino)pyridin-3-yl]-4-[(4-methyl-1H-indol-5-yl)amino]thieno[2,3-b]pyridine-5-carbonitrile] | 86 nM
N#Cc1cnc2sc(-c3csc(CN4CCC[C@H]4CO)c3)cc2c1Nc1ccc2[nH]ccc2c1 [Compound 158, 2-(5-{[(2S)-2-(hydroxymethyl)pyrrolidin-1-yl]methyl}-3-thienyl)-4-(1H-indol-5-ylamino)thieno[2,3-b]pyridine-5-carbonitrile] | 57 nM
COCCN1CCN(Cc2cccc(-c3cc4c(Nc5ccc6[nH]ccc6c5)c(C#N)cnc4s3)c2)CC1 [Compound 178, 4-(1H-indol-5-ylamino)-2-(3-{[4-(2-methoxyethyl)piperazin-1-yl]methyl}phenyl)thieno[2,3-b]pyridine-5-carbonitrile] | 300 nM
Cc1c(Nc2c(C#N)cnc3sc(/C=C/C(=O)N(C)CCN(C)C)cc23)ccc2[nH]ccc12 [Compound 312, (2E)-3-{5-cyano-4-[(4-methyl-1H-indol-5-yl)amino]thieno[2,3-b]pyridin-2-yl}-N-[2-(dimethylamino)ethyl]-N-methylacrylamide] | 151 nM
CCc1c(Nc2c(C#N)cnc3sc(-c4ccccc4)cc23)ccc2[nH]ccc12 [Compound 126, 4-[(4-ethyl-1H-indol-5-yl)amino]-2-phenylthieno[2,3-b]pyridine-5-carbonitrile] | 830 nM
CCOc1ccc(CN(C)C)cc1-c1cc2c(Nc3ccc4[nH]ccc4c3C)c(C#N)cnc2s1 [Compound 367, 2-{5-[(dimethylamino)methyl]-2-ethoxyphenyl}-4-[(4-methyl-1H-indol-5-yl)amino]thieno[2,3-b]pyridine-5-carbonitrile] | 7 nM
Cc1c(Nc2c(C#N)cnc3sc(-c4ccc(OC[C@@H](C)O)cc4)cc23)ccc2[nH]ccc12 [Compound 489, 2-(4-{[(2R)-2-hydroxypropyl]-oxy}phenyl)-4-[(4-methyl-1H-indol-5-yl)amino]thieno[2,3-b]pyridine-5-carbonitrile] | 175 nM
Cc1c(Nc2c(C#N)cnc3sc(-c4cccc(S(N)(=O)=O)c4)cc23)ccc2[nH]ccc12 [Compound 240, 3-{5-cyano-4-[(4-methyl-1H-indol-5-yl)amino]thieno[2,3-b]pyridin-2-yl}benzenesulfonamide] | 6 nM
N#Cc1cnc2sc(-c3cccc(CN4CCN(CCOCCO)CC4)c3)cc2c1Nc1ccc2[nH]ccc2c1 [Compound 181, 2-[3-({4-[2-(2-hydroxyethoxy)ethyl]piperazin-1-yl}methyl)phenyl]-4-(1H-indol-5-ylamino)thieno[2,3-b]pyridine-5-carbonitrile] | 180 nM
CN(C)Cc1cc(-c2cc3c(Nc4ccc5[nH]ccc5c4)c(C#N)cnc3s2)cs1 [Compound 212, 2-{5-[(dimethylamino)methyl]-3-thienyl}-4-(1H-indol-5-ylamino)thieno[2,3-b]pyridine-5-carbonitrile] | 37 nM
Cc1c(I)sc2ncc(C#N)c(Nc3ccc4[nH]ccc4c3)c12 [Compound 317, 4-(1H-Indol-5-ylamino)-2-iodo-3-methylthieno[2,3-b]pyridine-5-carbonitrile] | 718 nM
Cc1c(Nc2c(C#N)cnc3sc(/C=C/C(=O)N4CCOCC4)cc23)ccc2[nH]ccc12 [Compound 309, 4-[(4-methyl-1H-indol-5-yl)amino]-2-[(1E)-3-morpholin-4-yl-3-oxoprop-1-en-1-yl]thieno[2,3-b]pyridine-5-carbonitrile] | 53 nM
Cc1c(Nc2c(C#N)cnc3sc(-c4cccc(OC[C@@H](O)CO)c4)cc23)ccc2[nH]ccc12 [Compound 485, 2-(3-{[(2S)-2,3-Dihydroxypropyl]-oxy}phenyl)-4-[(4-methyl-1H-indol-5-yl)amino]thieno[2,3-b]pyridine-5-carbonitrile] | 40 nM
